Assay results from patent US4363812A, “3-(Tetrazol-5-yl), 4-methyl-8-alkoxy coumarins and anti-allergic compositions thereof” (priority 1978, dated 1982).
Counter-ions that a name gives are not always drawn. Like-named read-outs stand apart in the source and are kept apart here.

Legend:
[1] = antiallergic activity (general statement); conditions: compared with coumarin derivatives of Japanese Publication No. 64273/1975
[2] = system: passive cutaneous anaphylaxis (PCA) mediated by homocytotropic antibodies (HTA); assay: passive cutaneous anaphylaxis (PCA) test, oral, in rats; type: in vivo, rat (Wistar); conditions: for minimal effective dose: Rattus norvegicus
Protocol: With respect to the present 3-(1H-tetrazol-5-yl)coumarin derivatives, there was tested antiallergic activity concerning passive cutaneous anaphylaxis (PCA) mediated by homocytotropic antibodies (HTA) in rats.
(i) Preparation of antisera
2,4-Dinitrophenyl-coupled ascaris extract (DNP-As) used as antigen, was prepared according to the methods of Strejan et al [cf. J. Immunol., Vol. 98, 893(1967)] and Eisen [cf. J. Amer. Chem. Soc., Vol. 75. 4593(1953)]. Antisera containing HTA were prepared in rats according to the method of Tada and Okumura [cf. J. Immunol., Vol. 106, 1002(1971)] as follows:
Female wister rats weighing 180 to 200 g. were splenectomized and several days later immunized by injecting into all four footpads a total of 1 mg. of DNP-As mixed with 10^10 Bordetella pertussis. After 5 days, 0.5 mg. of DNP-As alone was injected subcutaneously into the back of rats. Eight days after the first immunization, blood was collected by aortic puncture under ether anaesthesea and antisera obtained by these procedures were pooled and stored at -80° C.
The titer of the pooled autiserum was determined in rats by the 72 hr. PCA which method was described in the following item (ii), i.e. the highest dilution of antiserum producing a diameter of approximately 5 mm. was usually 1:500.
(ii) Assessment of PCA in rats
Normal wister rats weighing 140 to 160 g. were sensitized passively by injection intradermal on the shaved back skin 0.05 ml. of the diluted antisera (1:30). After 72 hours, the animals were injected intravenously 1 ml. of physiological salt solution containing 2 mg. DNP-As and 2.5 mg. Evans' blue.
The present compounds to be tested were given orally 30 minutes before antigen challenge. The animals were exsanguinated 30 minutes after challenge with the antigens and the skins were exfoliated. The intensities of PCA were evaluated by measuring the amount of leaked dye. The amount of dye leaked as a result of PCA was extracted according to the method of Harada et al [cf. Jpn. J. Allergol., Vol. 15, 1(1966)] and measured photometrically.

[3] = acute toxicity, oral, in mice; type: in vivo; conditions: mouse, in vivo, po
Protocol: (§1) Moreover, the introduction of substituent groups such as an alkoxyl group, an alkenyloxy group and hydroxyl group to the 5, 6, 7 or 8 position of the coumarin ring brings the decrease of toxicity.
(§2) With respect to the present 3-(1H-tetrazol-5-yl)coumarin derivatives, there was tested acute toxicity in mice.
(§3) After normal female Slc: ddy mice 4 weeks old were purchased and fed preliminarily in this lavoratory for a week, these mice weighing 25-27 g. were used in the test. The present compounds to be tested, were suspended in a 10% gum arabic solution and administered orally […]. body weight to mice. Each dose level was given to a group of ten animals and the survivors were kept under observation for 6 days. The numbers of dead animals were counted and the LD50 values in mg./kg. body weight were calculated by the method of Litchfield-Wilcoxon.

experimental asthma = assay: model of experimental asthma in animals; type: in vivo; conditions: oral administration
mice = assay: acute toxicity, oral, in mice; type: in vivo; conditions: Table 4; oral, female Slc: ddy mice, 6 days observation, Litchfield-Wilcoxon; 8640 min
Protocol: as §1, §2, §3

[4] = po, read-out: MED (minimum effective dose)
[5] = LD50 (50% lethal dose), Table 1, orally in mice
[6] = read-out: MED (minimum effect dose)
[7] = Table 4, oral, female Slc: ddy mice, 6 days observation, Litchfield-Wilcoxon, read-out: LD50
[8] = Table 3, oral 30 minutes before antigen challenge, rats, lowest dose significantly decreasing leaked dye vs control, read-out: MED (minimum effect dose)

| SMILES | LD50 at 144 h [3, 7] [mg/kg] | minimal effective dose [2, 8] [mg/kg] | further results |
| --- | --- | --- | --- |
| O=c1oc2ccccc2cc1-c1nnn[nH]1 |  |  | antiallergic activity [1]: stronger antiallergic activity |
| Cc1c(-c2nnn[nH]2)c(=O)oc2c(Cl)cccc12 [Compound I, reference compound] |  |  | minimal effective dose [2, 4]: 6.25 mg/kg; LD50 at 144 h [3, 5]: 1040 mg/kg |
| CCCCCOc1cccc2cc(-c3nnn[nH]3)c(=O)oc12 [Example 1, 8-n-Pentyloxy-3-(1H-tetrazol-5-yl)coumarin] | 1330 |  | minimal effective dose [2, 4]: 1.56 mg/kg; minimal effective dose [2, 6]: 1.56 mg/kg; LD50 at 144 h [3, 5]: 1330 mg/kg |
| CCCCOc1cc(C)cc2cc(-c3nnn[nH]3)c(=O)oc12 [Example 2, 8-n-Butoxy-6-methyl-3-(1H-tetrazol-5-yl)coumarin] | 1870 |  | minimal effective dose [2, 4]: 0.39 mg/kg; minimal effective dose [2, 6]: 0.39 mg/kg; LD50 at 144 h [3, 5]: 1870 mg/kg |
| COc1cccc2cc(-c3nnn[nH]3)c(=O)oc12 [Example 3, 8-Methoxy-3-(1H-tetrazol-5-yl)coumarin] | 2000 to 3000 | 6.25 |  |
| CCOc1cccc2cc(-c3nnn[nH]3)c(=O)oc12 [Example 4, 8-Ethoxy-3-(1H-tetrazol-5-yl)coumarin] | 2500 |  | minimal effective dose [2, 4]: 6.25 mg/kg; minimal effective dose [2, 6]: 6.25 mg/kg; LD50 at 144 h [3, 5]: 2500 mg/kg |
| CCCOc1cccc2cc(-c3nnn[nH]3)c(=O)oc12 [Example 5, 8-n-Propoxy-3-(1H-tetrazol-5-yl)coumarin] | 2000 to 3000 | 6.25 |  |
| CC(C)Oc1cccc2cc(-c3nnn[nH]3)c(=O)oc12 [Example 6, 8-Isopropoxy-3-(1H-tetrazol-5-yl)coumarin] | 2250 |  | minimal effective dose [2, 4]: 1.56 mg/kg; minimal effective dose [2, 6]: 1.56 mg/kg; LD50 at 144 h [3, 5]: 2250 mg/kg |
| CCCOc1ccc2cc(-c3nnn[nH]3)c(=O)oc2c1 [Example 7, 7-n-Propoxy-3-(1H-tetrazol-5-yl)coumarin] | 2000 to 3000 | 6.25 |  |
| CCCCOc1cccc2cc(-c3nnn[nH]3)c(=O)oc12 [Example 8, 8-n-Butoxy-3-(1H-tetrazol-5-yl)coumarin] | 2380 |  | minimal effective dose [2, 4]: 1.56 mg/kg; minimal effective dose [2, 6]: 1.56 mg/kg; LD50 at 144 h [3, 5]: 2380 mg/kg |
| CC(C)CCOc1cccc2cc(-c3nnn[nH]3)c(=O)oc12 [Example 9, 8-Isopentyloxy-3-(1H-tetrazol-5-yl)coumarin] | 1000 to 2000 | 0.39 |  |
| CCCCCCOc1cccc2cc(-c3nnn[nH]3)c(=O)oc12 [Example 10, 8-n-Hexyloxy-3-(1H-tetrazol-5-yl)coumarin] | 2650 |  | minimal effective dose [2, 4]: 1.56 mg/kg; minimal effective dose [2, 6]: 1.56 mg/kg; therapeutic effect in experimental asthma (experimental asthma): shows a therapeutic effect; LD50 at 144 h [3, 5]: 2650 mg/kg |
| CCCCCCCOc1cccc2cc(-c3nnn[nH]3)c(=O)oc12 [Example 11, 8-n-Heptyloxy-3-(1H-tetrazol-5-yl)coumarin] | 2000 to 3000 | 1.56 |  |
| CCCCCCCCCOc1cccc2cc(-c3nnn[nH]3)c(=O)oc12 [Example 12, 8-n-Nonyloxy-3-(1H-tetrazol-5-yl)coumarin] | 2000 to 3000 | 6.25 |  |
| CCCCCCCCCCCCOc1cccc2cc(-c3nnn[nH]3)c(=O)oc12 [Example 13, 8-n-Dodecyloxy-3-(1H-tetrazol-5-yl)coumarin] | 2000 to 3000 | 6.25 |  |
| CCCCCCCCCCCCCCCOc1cccc2cc(-c3nnn[nH]3)c(=O)oc12 [Example 14, 8-n-Pentadecyloxy-3-(1H-tetrazol-5-yl)coumarin] | 2000 to 3000 | 6.25 |  |
| CCCCCCCCCCCCCCCCCCOc1cccc2cc(-c3nnn[nH]3)c(=O)oc12 [Example 15, 8-n-Octadecyloxy-3-(1H-tetrazol-5-yl)coumarin] | 2000 to 3000 | 6.25 |  |

| SMILES | LD50 at 144 h [3, 7] [mg/kg] | minimal effective dose [2, 8] [mg/kg] | further results |
| --- | --- | --- | --- |
| C=CCOc1cccc2cc(-c3nnn[nH]3)c(=O)oc12 [Example 16, 8-Allyloxy-3-(1H-tetrazol-5-yl)coumarin] | 2000 to 3000 | 1.56 |  |
| CC(C)=CCC/C(C)=C/COc1cccc2cc(-c3nnn[nH]3)c(=O)oc12 [Example 17, 8-Geranyloxy-3-(1H-tetrazol-5-yl)coumarin] | 500 to 1000 | 6.25 |  |
| CC(C)=CCCC(C)=CCCC(C)=CCOc1cccc2cc(-c3nnn[nH]3)c(=O)oc12 [Example 18, 8-Farnesyloxy-3-(1H-tetrazol-5-yl)coumarin] | 1000 to 2000 | 6.25 |  |
| O=c1oc2c(O)cccc2cc1-c1nnn[nH]1 [Example 19, 8-Hydroxy-3-(1H-tetrazol-5-yl)coumarin] | 2000 to 3000 | 25 |  |
| CCOc1cc(C)cc2cc(-c3nnn[nH]3)c(=O)oc12 [Example 20, 8-Ethoxy-6-methyl-3-(1H-tetrazol-5-yl)coumarin] | 2360 |  | minimal effective dose [2, 4]: 1.56 mg/kg; minimal effective dose [2, 6]: 1.56 mg/kg; LD50 at 144 h [3, 5]: 2360 mg/kg |
| CCCOc1cc(C)cc2cc(-c3nnn[nH]3)c(=O)oc12 [Example 21, 6-Methyl-8-n-propoxy-3-(1H-tetrazol-5-yl)coumarin] | 1000 to 2000 | 1.56 |  |
| Cc1cc(OC(C)C)c2oc(=O)c(-c3nnn[nH]3)cc2c1 [Example 22, 8-Isopropoxy-6-methyl-3-(1H-tetrazol-5-yl)coumarin] | 2200 |  | minimal effective dose [2, 4]: 1.56 mg/kg; minimal effective dose [2, 6]: 1.56 mg/kg; LD50 at 144 h [3, 5]: 2200 mg/kg |
| CCc1cc2cc(-c3nnn[nH]3)c(=O)oc2cc1OC [Example 23, 6-Ethyl-7-methoxy-3-(1H-tetrazol-5-yl)coumarin] | 500 to 1000 | 1.56 |  |
| COc1ccc2cc(-c3nnn[nH]3)c(=O)oc2c1C [Example 24, 7-Methoxy-8-methyl-3-(1H-tetrazol-5-yl)coumarin] | 300 to 1000 | 6.25 |  |
| COc1cc2cc(-c3nnn[nH]3)c(=O)oc2cc1C [Example 25, 6-Methoxy-7-methyl-3-(1H-tetrazol-5-yl)coumarin] | 500 to 1000 | 12.5 |  |
| C=CCOc1cc(C)cc2cc(-c3nnn[nH]3)c(=O)oc12 [Example 26, 8-Allyloxy-6-methyl-3-(1H-tetrazol-5-yl)coumarin] | 2000 to 3000 | 1.56 |  |
| Cc1cc(O)c2oc(=O)c(-c3nnn[nH]3)cc2c1 [Example 27, 8-Hydroxy-6-methyl-3-(1H-tetrazol-5-yl)coumarin] | 2000 to 3000 | 12.5 |  |
| COc1cc2oc(=O)c(-c3nnn[nH]3)cc2cc1CC=C(C)C [Example 28, 7-Methoxy-6-(3-methyl-2-butenyl)-3-(1H-tetrazol-5-yl)coumarin] | 500 to 1000 | 1.56 |  |
| CCOc1cc2oc(=O)c(-c3nnn[nH]3)cc2cc1CC=C(C)C [Example 29, 7-Ethoxy-6-(3-methyl-2-butenyl)-3-(1H-tetrazol-5-yl)coumarin] | 500 to 1000 | 12.5 |  |
| CCOc1cc(OCC)c2cc(-c3nnn[nH]3)c(=O)oc2c1 [Example 30, 5,7-Diethoxy-3-(1H-tetrazol-5-yl)coumarin] | 2000 to 3000 | 12.5 |  |
| CCCCOc1cccc2cc(-c3nnn[nH]3)c(=O)oc12 [Example 31, Sodium salt of 8-n-butoxy-3-(1H-tetrazol-5-yl)coumarin] |  |  | MED (minimum effect dose) ([2]; Table 3, oral 30 minutes before antigen challenge, rats, lowest dose significantly decreasing leaked dye vs control): 1.56 mg/kg; LD50 (mice): 2470 mg/kg |
| Cc1ccc2oc(=O)c(-c3nnn[nH]3)c(C)c2c1 [J, reference compound] |  |  | minimal effective dose [2, 4]: 25 mg/kg; LD50 at 144 h [3, 5]: 533 mg/kg |
